Measured values published in US20230265116A1, “DEGRADATION OF (EGFR) BY CONJUGATION OF EGFR INHIBITORS WITH E3 LIGASE LIGAND AND METHODS OF USE” (BEIGENE, LTD., priority 2020, published 2023).

Tests used:
[1] = system: EGFR Del19/T790M/C797S (H1975-clone #28); assay: EGFR degradation HTRF assay, H1975-clone #28 DTC cells; type: cell-based; details: H1975 # 28 DTC cells; for DC50: EGFR degradation, IC50 (DC50) from curve fit, read-out: DC50(nM) H1975 # 28 DTC; for Dmax (%) H1975 # 28 DTC: maximum percentage of inhibition (degradation)
Protocol: H1975-clone #28(Del19/T790M/C797S) and H1975-clone #23(Del19/C797S). EGFR-Del19/T790M/C797S and EGFR-Del19/C797S were stably expressed in H1975 cell lines by lentivirus-mediated over-expression, respectively. The EGFR over-expressed cells then underwent gene knockout, in which the EGFR targeting sgRNA was designed to only target the endogenous EGFR copies and preserve the exogenous EGFR copies. Followed by the gene knockout, the edited H1975 cells were seeded in 96 well plates at the concentration of 1 cell/well, cultured for about 2 weeks to allow single clones formation. The formed clones were screened by DNA sequencing and whole exon sequencing analysis for the desired edition. H1975-clone #28 and H1975-clone #23 were finally confirmed as homozygous Del19/T790M/C797S EGFR and Del19/C797S EGFR clones, respectively.
(§1) BaF3 WT(wild type), BaF3-LTC(L858R/T790M/C797S) and BaF3-DTC(Del19/T790M/C797S) cells are treated with compounds diluted in 0.2% DMSO cell culture medium and incubate for 16h, 37° C., 5% CO2, H1975-#36, H1975-#28, H1975-#23 and HCC827 cells are treated with compounds diluted in 0.2% DMSO cell culture medium on day 2, incubate for 16h, 37° C., 5% CO2.the final concentriation of compounds in all assay is start with 10 uM, 5-fold dilution, total 8 doses were included.
(§2) After 16h treatment, add HTRF lysis buffer to each well; seal the plate and incubate 1 hour at room temperature on a plate shaker; Once the cells are lysed, 16 μL of cell lysate are transferred to a PE 384-well HTRF detection plate; 4 μL of pre-mixed HTRF antibodies are added to each well; Cover the plate with a plate sealer, spin 1000 rpm for 1 min, Incubate overnight at room temperature; Read on BMG PheraStar with HTRF protocol (337 nm-665 nm-620 nm).
(§3) The inhibition (degradation) percentage of the compound was calculated by the following equation: Inhibition percentage of Compound=100-100×(Signal-low control)/(High control-low control), wherein signal=each test compound group
(§4) High control=Cell group with added DMSO and without compound, indicating microplate readings without EGFR degradation;
(§5) Dmax is the maximum percentage of inhibition (degradation).
(§6) The IC50 (DC50) value of a compound can be obtained by fitting the following equation
(§7) Y=Bottom+(TOP−Bottom)/(1+((IC50/X)^hillslope))
(§8) Wherein, X and Y are known values, and IC50, Hillslope, Top and Bottom are the parameters obtained by fitting with software. Y is the inhibition percentage (calculated from the equation), X is the concentration of the compound; IC50 is the concentration of the compound when the 50% inhibition is reached. The smaller the IC50 value is, the stronger the inhibitory ability of the compound is. Vice versa, the higher the IC50 value is, the weaker the inhibitory ability of the compound is; Hillslope represents the slope of the fitted curve, generally around 1*; Bottom represents the minimum value of the curve obtained by data fitting, which is generally 0%±20%; Top represents the maximum value of the curve obtained by data fitting, which is generally 100%±20%. The experimental data were fitted by calculating and analyzing with Dotmatics data analysis software.

[2] = biological target: T1, EGFR L858R/T790M/C797S (BaF3-LTC cells) (Homo sapiens, UniProt P00533, C797S/L858R/T790M); assay: EGFR degradation HTRF assay, BaF3-LTC cells; type: cell-based; details: BaF3-LTC cells; for DC50: EGFR degradation, IC50 (DC50) from curve fit, read-out: DC50(nM) BaF3-LTC; for Dmax: maximum percentage of inhibition (degradation), read-out: Dmax (%) BaF3-LTC
T1 construct: expressed in transfected cells; host or cells: BaF3
T1 sequence (P00533 25-1210 T790M/C797S/L858R): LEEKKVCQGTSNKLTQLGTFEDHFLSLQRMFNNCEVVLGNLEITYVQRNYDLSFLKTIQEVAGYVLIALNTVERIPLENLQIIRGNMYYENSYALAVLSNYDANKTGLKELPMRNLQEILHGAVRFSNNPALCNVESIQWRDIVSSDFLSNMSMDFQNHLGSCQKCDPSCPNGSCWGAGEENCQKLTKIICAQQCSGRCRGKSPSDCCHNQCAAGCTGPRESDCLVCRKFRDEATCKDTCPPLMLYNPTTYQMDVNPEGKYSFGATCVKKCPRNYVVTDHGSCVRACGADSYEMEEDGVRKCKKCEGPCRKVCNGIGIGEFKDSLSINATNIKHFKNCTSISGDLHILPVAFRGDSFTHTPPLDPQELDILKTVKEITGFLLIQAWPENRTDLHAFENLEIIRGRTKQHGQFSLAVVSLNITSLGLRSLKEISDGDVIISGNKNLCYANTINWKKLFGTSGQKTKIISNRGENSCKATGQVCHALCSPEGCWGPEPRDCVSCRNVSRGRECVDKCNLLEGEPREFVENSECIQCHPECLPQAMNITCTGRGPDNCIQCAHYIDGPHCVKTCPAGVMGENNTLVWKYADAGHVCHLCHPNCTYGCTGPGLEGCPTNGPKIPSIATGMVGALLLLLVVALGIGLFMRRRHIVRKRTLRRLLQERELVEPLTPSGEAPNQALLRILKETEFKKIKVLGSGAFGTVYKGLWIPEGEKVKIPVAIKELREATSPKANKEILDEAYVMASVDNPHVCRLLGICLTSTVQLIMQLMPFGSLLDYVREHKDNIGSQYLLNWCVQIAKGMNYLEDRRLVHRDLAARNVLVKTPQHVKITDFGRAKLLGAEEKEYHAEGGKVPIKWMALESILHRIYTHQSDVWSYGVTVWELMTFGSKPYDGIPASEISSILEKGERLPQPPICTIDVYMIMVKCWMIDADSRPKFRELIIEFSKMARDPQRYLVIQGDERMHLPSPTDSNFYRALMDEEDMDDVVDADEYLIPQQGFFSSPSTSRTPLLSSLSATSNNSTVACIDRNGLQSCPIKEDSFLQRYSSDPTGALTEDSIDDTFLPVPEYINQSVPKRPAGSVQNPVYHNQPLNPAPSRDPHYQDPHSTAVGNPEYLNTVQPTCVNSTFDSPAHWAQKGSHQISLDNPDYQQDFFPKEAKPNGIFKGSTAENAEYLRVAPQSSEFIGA
Protocol: as §1, §2, §3, §4, §5, §6, §7, §8

Row | SMILES | DC50 [1] | DC50 [2] | Dmax [2] | Dmax (%) H1975 # 28 DTC [1]
1 | CCc1ccc2c(P(C)(C)=O)c(Nc3nc(Nc4cc(CC)c(N5CCC(N6CCN(CCc7cccc8c7n(CC)c(=O)n8C7CCC(=O)NC7=O)CC6)CC5)cc4OC)ncc3Br)ccc2n1 (stereo not shown) [Example 453, 3-(4-(2-(4-(1-(4-((5-bromo-4-((5-(dimethylphosphoryl)-2-ethylquinolin-6-yl)amino)pyrimidin-2-yl)amino)-2-ethyl-5-methoxyphenyl)piperidin-4-yl)piperazin-1-yl)ethyl)-3-ethyl-2-oxo-2,3-dihydro-TH-benzo[d]imidazol-1-yl)piperidine-2,6-dione] | 0.704 nM | 5.7 nM | 93.1% | 77.04%
2 | CCOc1cc(N2CCC(N3CCN(C(=O)C4CN(c5cc(F)cc6c5n(C)c(=O)n6C5CCC(=O)NC5=O)C4)CC3)CC2)c(CC)cc1Nc1ncc(Br)c(Nc2ccc3nc(CC)ccc3c2P(C)(C)=O)n1 (stereo not shown) [Example 466, 3-(4-(3-(4-(1-(4-((5-bromo-4-((5-(dimethylphosphoryl)-2-ethylquinolin-6-yl)amino)pyrimidin-2-yl)amino)-5-ethoxy-2-ethylphenyl)piperidin-4-yl)piperazine-1-carbonyl)azetidin-1-yl)-6-fluoro-3-methyl-2-oxo-2,3-dihydro-1H-benzo[d]imidazol-1-yl)piperidine-2,6-dione] | 2.03 nM | 15.1 nM | 90.8% | 72.67%
3 | CCc1cc(Nc2ncc(Br)c(Nc3ccc4nc(C)ccc4c3P(C)(C)=O)n2)c(OC2CC2)cc1N1CCC(N2CCN(CCc3cc(F)c([C@H]4CCC(=O)NC4=O)c(F)c3)CC2)CC1 [Example 459, (R)-3-(4-(2-(4-(1-(4-((5-bromo-4-((5-(dimethylphosphoryl)-2-methylquinolin-6-yl)amino)pyrimidin-2-yl)amino)-5-cyclopropoxy-2-ethylphenyl)piperidin-4-yl)piperazin-1-yl)ethyl)-2,6-difluorophenyl)piperidine-2,6-dione] | 0.851 nM | – | – | 86.08%

Continued, in another order:

Row | DC50 [1] | DC50 [2] | Dmax [2] | SMILES | Dmax (%) H1975 # 28 DTC [1]
4 | 3.03 nM | 15.4 nM | 85.1% | CCc1cc(Nc2ncc(C(F)(F)F)c(Nc3ccc4nc(C)ccc4c3P(C)(C)=O)n2)c(OC)cc1N1CCC(N2CCN(CCc3cc(F)c(C4CCC(=O)NC4=O)c(F)c3)CC2)CC1 (stereo not shown) [Example 689, 3-(4-(2-(4-(1-(4-((4-((5-(dimethylphosphoryl)-2-methylquinolin-6-yl)amino)-5-(trifluoromethyl)pyrimidin-2-yl)amino)-2-ethyl-5-methoxyphenyl)piperidin-4-yl)piperazin-1-yl)ethyl)-2,6-difluorophenyl)piperidine-2,6-dione] | 72.37%
5 | 1.39 nM | 5.8 nM | 94.9% | CCOc1cc(N2CCC(N3CCN(C(=O)[C@@H]4CCN(c5cc(F)c([C@H]6CCC(=O)NC6=O)c(F)c5)C4)CC3)CC2)c(CC)cc1Nc1ncc(Br)c(Nc2cc(F)c3ncccc3c2P(C)(C)=O)n1 [Example 678, (R)-3-(4-((R)-3-(4-(1-(4-((5-bromo-4-((5-(dimethylphosphoryl)-8-fluoroquinolin-6-yl)amino)pyrimidin-2-yl)amino)-5-ethoxy-2-ethylphenyl)piperidin-4-yl)piperazine-1-carbonyl)pyrrolidin-1-yl)-2,6-difluorophenyl)piperidine-2,6-dione] | 81.53%
6 | – | – | 86.5% | CCc1cc(Nc2ncc(Br)c(Nc3ccc4nc(C)ccc4c3P(C)(C)=O)n2)c(OC)cc1N1CCC(N2CCN(C(=O)[C@@H]3CCN(c4ccc([C@H]5CCC(=O)NC5=O)cc4)C3)CC2)CC1 [Example 569, (R)-3-(4-((R)-3-(4-(1-(4-((5-bromo-4-((5-(dimethylphosphoryl)-2-methylquinolin-6-yl)amino)pyrimidin-2-yl)amino)-2-ethyl-5-methoxyphenyl)piperidin-4-yl)piperazine-1-carbonyl)pyrrolidin-1-yl)phenyl)piperidine-2,6-dione] | –
